Assay results reported in patent publication US4388233A, “Synthetic substrates for enzyme analysis” (priority 1981, dated 1983).
Where two headings read alike, the source gives them in different places. Values belong to the compound of their own block, whether it stands above or below them.

Tests used:
[1] = Solubility of liberated detector compounds in water; settings: in water as solvent, analogous to a buffered solution
[2] = Fluorescence properties of liberated detector compounds; type: physicochemical; settings: for Em: fluorescence emission wavelength of detector compound; for Ex: fluorescence excitation wavelength of detector compound; for Rel. Int.: relative fluorescent intensity of detector compound
From the text: The presence of the liberated D compound can be qualitatively or quantitatively determined fluorometrically, or may be utilized in colorimetric assays.

[3] = water
DAP II = assay: Enzyme kinetic study of synthetic substrates with DAP II; type: biochemical; settings: pH 5.6, rat pituitary homogenate 13.75 μg/mL protein equivalent, liberated D compound 7-amino-3-phenylcoumarin
From the text: (§1) In use for enzyme analysis, following enzyme cleavage of the bond between the C7 amino group and the A moiety, a detector group is liberated. This detector group is substantially identical to the precursor D moiety (although the amido group at C7 is converted to a primary amino group) and shall be hereinafter referred to as the liberated D compound.
(§2) The liberated D compounds from the above-described inventive synthetic substrates generally fluoresce strongly in the blue to yellow region of the spectrum once irradiated with ultraviolet light, whereas the intact synthetic substrates of the present invention fluoresce more weakly and at shorter wavelengths. The presence of the liberated D compound can be qualitatively or quantitatively determined fluorometrically, or may be utilized in colorimetric assays. Synthetic substrates in accordance with the present invention preferably fluoresce at wavelengths of at least about 460 nm. The FIG. 2 structure, for example, yields a liberated D compound which fluoresces at a wavelength of 472 nm, and the FIG. 3 structure at a wavelength of 505 nm.
The inventive synthetic substrates may be used in enzyme kinetic studies. Table I, below illustrates kinetic data of several synthetic substrates in accordance with the present invention (where the liberated D compound is 7-amino-3-phenylcoumarin) with 3 different enzymes. […]

Trypsin = assay: Enzyme kinetic / reaction rate study of synthetic substrates with trypsin; type: biochemical; settings: for 1/V: trypsin, pH8, 37° C., Ex = 420 nm, Em = 485 nm; for Km / Vmax: Trypsin, pH 8.0, 200 ng/mL, liberated D compound 7-amino-3-phenylcoumarin
From the text: as §1, §2
(§3) The inventive synthetic substrates may be used in enzyme kinetic studies. Table I, below illustrates kinetic data of several synthetic substrates in accordance with the present invention (where the liberated D compound is 7-amino-3-phenylcoumarin) with 3 different enzymes.
(§4) Table II, below, tabulates the data from three Lineweaver-Burk plots of reaction rate studies utilizing several of the inventive synthetic substrates.

Urokinase = assay: Enzyme kinetic / reaction rate study of synthetic substrates with urokinase; type: biochemical; settings: for 1/V: urokinase, pH8, 37° C., Ex = 410 nm, Em = 475 nm
From the text: as §1, §2, §3, §4

[4] = Urokinase, pH 8.0, 2.5 Plough units/ml, liberated D compound 7-amino-3-phenylcoumarin

Km (DAP II): 321 µM
Vmax (DAP II): 0.346 nmol/min
SMILES: Br.Br.C[C@H](NC(=O)[C@@H](N)CCCCN)C(=O)Nc1ccc2cc(-c3ccccc3)c(=O)oc2c1.O [Example VII, 7-(L-Lysyl-L-alaninamido)-3-phenylcoumarin Dihydrobromide Monohydrate]

1/V (Trypsin; 1/S = 1.7 (mm)^-1): 1.45 (nmol/ml/min)^-1
1/V (Trypsin; 1/S = 3.3 (mm)^-1): 2.25 (nmol/ml/min)^-1
1/V (Trypsin; 1/S = 6.7 (mm)^-1): 4.3 (nmol/ml/min)^-1
1/V (Trypsin; 1/S = 12.5 (mm)^-1): 7.6 (nmol/ml/min)^-1
1/V (Trypsin; 1/S = 16.6 (mm)^-1): 10.2 (nmol/ml/min)^-1
Km (Trypsin): 574 µM
Vmax (Trypsin): 1.264 nmol/min
SMILES: N=C(N)NCCC[C@H](NC(=O)OCc1ccccc1)C(=O)Nc1ccc2cc(-c3ccccc3)c(=O)oc2c1 [Example VIII, 7-(Z-L-Arginamido)-3-phenylcoumarin]

Km (Trypsin): 193 µM
Vmax (Trypsin): 0.174 nmol/min
SMILES: N=C(N)NCCC[C@H](NC(=O)OCc1ccc([N+](=O)[O-])cc1)C(=O)Nc1ccc2cc(-c3ccccc3)c(=O)oc2c1 [Example XII, 7-(4-NO2 -Z-L-Arginamido)-3-phenylcoumarin]

1/V (Trypsin; 1/S = 1.1 (mm)^-1): 4.9 (nmol/ml/min)^-1
1/V (Trypsin; 1/S = 1.7 (mm)^-1): 6.0 (nmol/ml/min)^-1
1/V (Trypsin; 1/S = 3.4 (mm)^-1): 10.0 (nmol/ml/min)^-1
1/V (Trypsin; 1/S = 6.7 (mm)^-1): 18.3 (nmol/ml/min)^-1
1/V (Trypsin; 1/S = 12.5 (mm)^-1): 35.0 (nmol/ml/min)^-1
Km (Trypsin): 945 µM
Vmax (Trypsin): 0.414 nmol/min
SMILES: N=C(N)NCCC[C@H](NC(=O)c1ccccc1)C(=O)Nc1ccc2cc(-c3ccccc3)c(=O)oc2c1 [IX, 7-(Benzoyl-L-arginamido)-3-phenylcoumarin]

Second part, the compound before the results:

SMILES: Nc1ccc2cc(-c3ccccc3)c(=O)oc2c1 [7-amino-3-phenyl coumarin, 7-amino-3-phenylcoumarin]
Sol. [1]: 0.0012 mg/mL
Em [2]: 472 nm
Ex [2]: 368 nm
Rel. Int. [2]: 4.0

SMILES: Nc1ccc2c(C(F)(F)F)cc(=O)oc2c1 [7-amino-4-trifluoro-methyl coumarin, 7-amino-4-trifluoromethylcoumarin, reference compound]
Sol. [3]: 0.017 mg/mL
Em [2]: 500 nm
Ex [2]: 390 nm
Rel. Int. [2]: 1.0

SMILES: N=C(N)NCCC[C@H](NC(=O)CNC(=O)CNC(=O)OCc1ccccc1)C(=O)Nc1ccc2cc(-c3ccccc3)c(=O)oc2c1 [Example X, 7-(Z-Glycylglycyl-L-arginamido)-3-phenylcoumarin]
1/V (Urokinase; 1/S = 1 (mm)^-1): 11 (nmol/ml/min)^-1
1/V (Urokinase; 1/S = 2 (mm)^-1): 13 (nmol/ml/min)^-1
1/V (Urokinase; 1/S = 3.5 (mm)^-1): 17 (nmol/ml/min)^-1
1/V (Urokinase; 1/S = 5 (mm)^-1): 22 (nmol/ml/min)^-1
1/V (Urokinase; 1/S = 8.25 (mm)^-1): 36 (nmol/ml/min)^-1
1/V (Urokinase; 1/S = 11 (mm)^-1): 42 (nmol/ml/min)^-1
1/V (Urokinase; 1/S = 12.25 (mm)^-1): 50 (nmol/ml/min)^-1
1/V (Urokinase; 1/S = 14.25 (mm)^-1): 51 (nmol/ml/min)^-1
Km (Urokinase; [4]): 411 µM
Vmax (Urokinase; [4]): 0.137 nmol/min
